Results: patent US20080194585A1, “Fungicidal Pyrazine Derivatives” (priority 2005, published 2008)
Marks after values point to notes of the source that are not given here.

Legend:
Conditions in all cases: 100 = 100% disease control, 0 = no control
[1] = system: Colletotrichum orbiculare; assay: Test B: cucumber Colletotrichum anthracnose, preventive spray on cucumber seedlings
Septoria nodorum = assay: Test H: wheat glum blotch, preventive spray on wheat seedlings
Procedure: (the causal agent of wheat glum blotch) and incubated in a saturated atmosphere at 20° C. for 48 h, and then moved to a growth chamber at 22° C. for 5 days, after which disease ratings were made.

fusarium graminearium = assay: Test I: wheat head scab, preventive spray on wheat seedlings
Procedure: (the causal agent of wheat head scab) and incubated in a saturated atmosphere at 20° C. for 72 h, and then moved to a growth chamber at 22° C. for 5 days, after which disease ratings were made.

[2] = system: Puccinia recondita f. sp. tritici; assay: Test K: wheat leaf rust, preventive spray on wheat seedlings
[3] = system: Erysiphe graminis f. sp. tritici; assay: Test L: wheat powdery mildew, preventive spray on wheat seedlings
Septoria tritici = assay: Test J: wheat leaf blotch, preventive spray on wheat seedlings; format: in vivo
Excerpt: A dash (-) indicates no test results.

Rhizoctonia oryzae = assay: Test G: turf brown patch, preventive spray on creeping bent grass seedlings
Procedure: (the causal agent of turf brown patch) and incubated in a saturated atmosphere at 27° C. for 24 h, and then moved to a growth chamber at 27° C. for 5 days, after which disease ratings were made.

Pythium aphanidermatum = assay: Test A: bluegrass pythium blight, preventive spray on bluegrass seedlings
Phytophthora infestans = assay: whole plant or invertebrate; format: in vivo
Botrytis cinerea = assay: Test E: tomato botrytis, preventive spray on tomato seedlings
Plasmopara viticola = assay: Test D: grape downy mildew, spray after inoculation of grape seedlings; format: in vivo
Excerpt: Upon removal, disease ratings were made. […] A dash (-) indicates no test results.

SMILES	Test I disease control rating (fusarium graminearium; 200 ppm) [%]	Test A disease control rating (Pythium aphanidermatum; 200 ppm) [%]	Test F disease control rating (Phytophthora infestans; 200 ppm) [%]	Test D disease control rating (Plasmopara viticola; 200 ppm) [%]	Test B disease control rating ([1]; 40 ppm (marked *))	Test H disease control rating (Septoria nodorum; 40 ppm (marked *))	Test I disease control rating (fusarium graminearium; 40 ppm (marked *))	Test K disease control rating ([2]; 40 ppm (marked *))	Test L disease control rating ([3]; 40 ppm (marked *))	Test J disease control rating (Septoria tritici; 40 ppm (marked *))	Test G disease control rating (Rhizoctonia oryzae; 40 ppm (marked *))	Test A disease control rating (Pythium aphanidermatum; 40 ppm (marked *))	Test F disease control rating (Phytophthora infestans; 40 ppm (marked *))	Test E disease control rating (Botrytis cinerea; 40 ppm (marked *))	Test D disease control rating (Plasmopara viticola; 40 ppm (marked *))	other results
CCc1c(Cl)nc(-n2cccn2)c(=O)n1CC(C)C [compound 316]	0	54	0	0												Test B disease control rating ([1]; 200 ppm): 0%; Test H disease control rating (Septoria nodorum; 200 ppm): 0%; Test K disease control rating ([2]; 200 ppm): 0%; Test L disease control rating ([3]; 200 ppm): 0%; Test J disease control rating (Septoria tritici; 200 ppm): 0%; Test G disease control rating (Rhizoctonia oryzae; 200 ppm): 0%; Test E disease control rating (Botrytis cinerea; 200 ppm): 0%
CCCCCc1c(Cl)nc(-n2cccn2)c(=O)n1CC(C)C [compound 317]	0	0	0	0												Test B disease control rating ([1]; 200 ppm): 0%; Test H disease control rating (Septoria nodorum; 200 ppm): 0%; Test K disease control rating ([2]; 200 ppm): 41%; Test L disease control rating ([3]; 200 ppm): 0%; Test J disease control rating (Septoria tritici; 200 ppm): 28%; Test G disease control rating (Rhizoctonia oryzae; 200 ppm): 0%; Test E disease control rating (Botrytis cinerea; 200 ppm): 0%
CC(C)Cn1c(-c2c(Cl)cc(Cl)cc2Cl)c(Cl)nc(-n2cccn2)c1=O [compound 318]					82* %	97* %	0* %	97* %	67* %	100* %	78* %	0* %	0* %	99* %	0* %	
O=c1c(-n2cccn2)nc(Cl)c(-c2c(F)cc(F)cc2F)n1-c1ccccc1F [compound 320]					88* %	100* %	0* %	99* %	96* %	100* %	80* %	74* %	0* %	99* %	0* %	
Cc1ccn(-c2nc(Cl)c(-c3c(F)cc(F)cc3F)n(-c3ccccc3)c2=O)n1 [compound 321]					94* %	100* %	82* %	99* %	0* %	100* %	70* %	0* %	0* %	99* %	17* %	
O=c1c(-n2cccn2)nc(Cl)c(-c2ccc(F)cc2Cl)n1-c1ccccc1 [compound 322]					63* %	98* %	0* %	92* %	0* %	100* %	16* %	0* %	0* %	99* %	0* %	
Cc1ccn(-c2nc(Cl)c(-c3ccc(F)cc3Cl)n(-c3ccccc3)c2=O)n1 [compound 323]					78* %	97* %	0* %	96* %	0* %	100* %	16* %	0* %	0* %	99* %	0* %	
CC(C)Cn1c(-c2c(F)cccc2F)c(Cl)nc(-n2cccc2C#N)c1=O [compound 325]					0* %		0* %		0* %	7* %	0* %	0* %	0* %	0* %	0* %	Test H disease control rating (Septoria nodorum; 200 ppm): 0%; Test K disease control rating ([2]; 200 ppm): 0%
Cc1cccc(-n2c(-c3c(F)cccc3F)c(Cl)nc(-n3cccn3)c2=O)c1 [compound 326]					0* %	100* %	0* %	97* %	94* %	97* %	16* %	0* %	0* %	99* %	0* %	
Cc1cccc(-n2c(-c3c(F)cccc3F)c(Cl)nc(-n3ccc(C)n3)c2=O)c1 [compound 327]					37* %	98* %	0* %	95* %	78* %	97* %	0* %	93* %	0* %	99* %	0* %	
Cc1ccccc1-n1c(-c2c(F)cccc2F)c(Cl)nc(-n2cccn2)c1=O [compound 328]					0* %	100* %	31* %	98* %	88* %	100* %	87* %	0* %	0* %	99* %	0* %	
Cc1ccn(-c2nc(Cl)c(-c3c(F)cccc3F)n(-c3ccccc3C)c2=O)n1 [compound 329]					31* %	100* %	0* %	96* %	76* %	100* %	26* %	83* %	0* %	99* %	0* %	
O=c1c(-n2cccn2)nc(Cl)c(-c2c(F)cc(F)cc2F)n1Cc1cccc(Br)c1 [compound 344]	93	0	0	0	0* %	99* %		99* %	0* %	100* %	16* %			92* %		
O=c1c(-n2cccn2)nc(Cl)c(-c2c(F)cc(F)cc2F)n1Cc1ccccc1Br [compound 345]	91	0	0	0	88* %	99* %		100* %	88* %	100* %	31* %			98* %		
O=c1c(-n2cccn2)nc(Cl)c(-c2c(F)cc(F)cc2F)n1Cc1ccc(C(F)(F)F)cc1 [compound 346]	0	0	0	0	0* %	0* %		74* %	0* %	13* %	0* %			0* %		
O=c1c(-n2cccn2)nc(Cl)c(-c2c(F)cc(F)cc2F)n1Cc1cccc(C(F)(F)F)c1 [compound 347]	0	0	0	0	0* %	0* %		93* %	25* %	83* %	0* %			0* %		
O=c1c(-n2cccn2)nc(Cl)c(-c2c(F)cc(F)cc2F)n1Cc1ccccc1C(F)(F)F [compound 348]	0	0	0	0	0* %	64* %		97* %	44* %	99* %	16* %			90* %		
